Results from patent US20250313546A1, “NUCLEIC ACID BINDERS” (UNIVERSITY OF STRATHCLYDE, priority 2022, published 2025).
In brackets after ≈: the same amount, converted by molar mass.

How the values were obtained:
[1] = tested on: Candida glabrata (ACPF3309); conditions: for MIC99: Nakaseomyces glabratus, read-out: MIC99 Candida glabrata
Method: (§2) The Minimum Inhibitory Concentration (MIC, at 99% inhibition) of the compounds was determined using the broth microdilution method as recommended by EUCAST (EUCAST Definitive Document E.DEF 9.3.2, Method for the determination of broth dilution minimum inhibitory concentrations of antifungal agents for conidia forming moulds and EUCAST Definitive Document E.DEF 7.3.2 Method for the determination of broth dilution minimum inhibitory concentrations of antifungal agents for yeasts).

[2] = tested on: Rhizopus arrhizus (NEQAS12.35321); conditions: read-out: MIC99 Rhizopus arrhizus
[3] = tested on: A. fumigatus A1160 (MFIG001); conditions: Aspergillus fumigatus, read-out: MIC99 A. fumigatus A1160
Method: as §2

[4] = tested on: SARS-CoV-2 (hCoV-19/Australia/VIC01/2020); test: SARS-CoV-2 microplaque inhibition assay in Vero-E6 cells; assay type: cell-based; conditions: for IC50: Severe acute respiratory syndrome coronavirus 2, Vero C1008, plaque inhibition, Vero-E6 cells, read-out: IC50 SARS-CoV-2
[5] = tested on: C. neoformans (F10025); conditions: Cryptococcus neoformans, read-out: MIC99 C. neoformans
[6] = tested on: Influenza (H1N1); test: Accelerated Viral Neuraminidase Inhibition Assay (AVINA), A549 cells; assay type: cell-based; conditions: Influenza A virus, 72 h
[7] = tested on: Genomic double stranded DNA (salmon); test: Fluorescence intercalator displacement (FID) assay, SYBR-safe probe; conditions: 20 μM compound, 30° C., lower % = stronger binding
Method in brief: (§1)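 Probe displacement was measured at 30 °C in 1 mM phosphate pH 7.4 containing SybrSafe (12500-fold dilution), 3.76 ng/mL nucleic acid (salmon dsDNA or polyAU dsRNA) and 20 μM compound. Fluorescence loss is normalised between probe-only and probe-plus-nucleic-acid controls.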

[8] = tested on: PolyAU double stranded RNA; test: as above; conditions: 20 μM compound, 30° C., lower % = stronger binding
Method in brief: as §1

[9] = tested on: Staphylococcus aureus (ATCC 43300); test: Antibacterial MIC, broth microdilution (CLSI); assay type: cell-based; conditions: for S. aureus Selectivity Indices, Group: Alkyl Amidines and NH Pyrroles; for MIC80: Staphylococcus aureus, ATCC43300, read-out: MIC80 S. aureus
[10] = tested on: T. equiperdum; test: Resazurin-based (Alamar blue) drug sensitivity assay; conditions: Trypanosoma equiperdum, read-out: IC50 T. equiperdum
Method: (§3) A detailed description of the procedure for evaluating activity against trypanosomes, using an Alamar Blue (resazurin) assay, is described below.
(§4) The bloodstream form (BSF) T. b. brucei s427 (see De Koning, H. P. et al., Mol. Biochem. Parasitol. 2000, 106, 181-185), T. evansi AntTat 3/3 (see Dean, S. et al., Proc. Natl. Acad. Sci. USA, 2013, 110, 14741-14746), and T. equiperdum (see Stewart, M. L. et al., Eukaryot. Cell, 2010, 9, 336-343) were cultured in HMI-9 medium (Life Technologies, Paisley, United Kingdom) supplemented with 10% heat inactivated Foetal Bovine Serum (FBS (PAA Laboratories Linz, Austria)), 14 μL/L β-mercaptoethanol (BDH, Dorset, UK), and 3.0 g/L NaHCO3 (Sigma-Aldrich) and adjusted to pH 7.4. These cell lines were maintained at 37° C. in a humidified, 5% CO2 environment.
(§5) A resazurin-based (Alamar blue) drug sensitivity assay was used to assess and compare the activity of standard trypanocides in the different cell lines investigated (see Gould, M. K. et al., Anal. Biochem., 2008, 382, 87-93). Briefly, 23 doubling dilutions of the test compound of the invention, starting at 100 μM, and a compound-free control were prepared in 100 μL medium in a 96-well white plate (Greiner Bio-one, Frickenhausen, Germany). The cells were adjusted to 2×10^4 cells/mL for T. b. brucei and T. equiperdum; 4×10^4 cells/mL for T. evansi; and 5×10^5 cells/mL for T. congolense in the appropriate medium. 100 μL of the adjusted cells was then added to the wells containing drug dilutions and incubated for 48 h under respective culture condition. Thereafter, 20 μL of 125 mg/mL resazurin sodium dye was added, and the plate was incubated for a further 24 h.

[11] = tested on: Human rhinovirus (HRV-14); test: Viral ToxGlo assay, Hela Ohio cells; assay type: cell-based; conditions: M-HeLa, 72 h
[12] = tested on: T. evansi AntTat 3/3; test: Resazurin-based (Alamar blue) drug sensitivity assay; conditions: read-out: IC50 T. evansi
Method: as §3, §4, §5

[13] = tested on: Escherichia coli (ATCC 25922); test: Antibacterial MIC, broth microdilution (CLSI); assay type: cell-based; conditions: Escherichia coli, ATCC25922; read-out: MIC80 E. coli
[14] = tested on: Enterococcus faecalis (ATCC 51299); test: Antibacterial MIC, broth microdilution (CLSI); assay type: cell-based; conditions: for MIC80: Enterococcus faecalis, ATCC51299, read-out: MIC80 E. faecalis; for E. faecalis Selectivity Indices, Group: Alkyl Amidines and NH Pyrroles
[15] = tested on: Candida auris (H.17.157); conditions: for MIC99: Candidozyma auris, read-out: MIC99 Candida auris
Method: as §2

[16] = tested on: T. vaginalis; test: Trichomonas resorufin assay; assay type: cell-based; conditions: for IC50: Trichomonas vaginalis, read-out: IC50 T. vaginalis
[17] = tested on: human respiratory syncytial virus (RSV A2); test: Viral ToxGlo assay, Hep-2 cells; assay type: cell-based; conditions: 72 h
[18] = SI, IC50 (μM)/MIC99 (μg/mL), HEK293 cytotoxicity, Alkyl Amidines and NH Pyrroles
[19] = SI, IC50 (μM)/IC50 (μM), HEK293 cytotoxicity, Alkyl Amidines and NH Pyrroles
[20] = SI, IC50 (μM)/IC50 (μM), HEK293 cytotoxicity, numeric value
[21] = SI, IC50 (μM)/MIC80 (μM), HEK293 cytotoxicity
[22] = SI, IC50 (μM)/MIC80 (μM), HEK293 cytotoxicity, numeric value

| SMILES | MIC99 [1] | MIC99 [3] | MIC99 [5] | inhibition at 20 µM [6] | % Normalised Fluorescence with gDNA [7] | % Normalised Fluorescence with polyAU RNA [8] | S. aureus Selectivity Indices, Group [9, 21] | MIC80 [9] | inhibition at 20 µM [11] | MIC80 [13] | MIC80 [14] | E. faecalis Selectivity Indices, Group [14, 21] | IC50 [16] | inhibition at 20 µM [17] | other results |
| --- | --- | --- | --- | --- | --- | --- | --- | --- | --- | --- | --- | --- | --- | --- | --- |
| CN(C)c1ccc(/C=C/c2ccc(C(=O)Nc3c[nH]c(C(=O)Nc4c[nH]c(C(=O)NCCC(=N)N)c4)c3)cn2)cc1 [IIIa9, (E)-N-(5-((5-((3-amino-3-iminopropyl)carbamoyl)-1H-pyrrol-3-yl)carbamoyl)-1H-pyrrol-3-yl)-6-(4-(dimethylamino)styryl)nicotinamide] | < 5 µg/mL | 5 to 25 µg/mL (≈ 9.03 to 45.2 µM) | < 5 µg/mL | 10 to 25% | 16% | 24% | C (Group C: 5 < SI <= 10) | 5 to 25 µM (≈ 2.77 to 13.8 µg/mL) | 25 to 50% | 25 to 100 µM (≈ 13.8 to 55.4 µg/mL) | 5 to 25 µM (≈ 2.77 to 13.8 µg/mL) | C (Group C: 5 < SI <= 10) |  |  | C. glabrata Selectivity Indices, Group [1, 18]: C (Group C 20 < SI <= 50); MIC99 [2]: 5 to 25 µg/mL (≈ 9.03 to 45.2 µM); SARS-CoV-2 Selectivity Indices, Group [4, 19]: D (Group D: SI > 25); SARS-CoV-2 Selectivity Index (SI) [4, 20]: 33; IC50 [4]: < 2 µM; IC50 [10]: > 1 µM; IC50 [12]: 0.1 to 1 µM; MIC99 [15]: 5 to 25 µg/mL (≈ 9.03 to 45.2 µM); C. auris Selectivity Indices, Group [15, 18]: D (Group D SI > 3); C. auris Selectivity Index (SI) ([15]; SI, IC50 (μM)/MIC99 (μg/mL), HEK293 cytotoxicity, numeric value): 6 |
| CN(C)c1ccc(/C=C/c2ccc(C(=O)Nc3c[nH]c(C(=O)Nc4c[nH]c(C(=O)NCCN5CCOCC5)c4)c3)cn2)cc1 [IIIb7, (E)-6-(4-(dimethylamino)styryl)-N-(5-((5-((2-morpholinoethyl)carbamoyl)-1H-pyrrol-3-yl)carbamoyl)-1H-pyrrol-3-yl)nicotinamide] |  |  |  |  | 63% | 44% | B (Group B: 3 < SI <= 5) | 5 to 25 µM (≈ 2.98 to 14.9 µg/mL) | 10 to 25% | > 100 µM | > 100 µM |  |  |  |  |
| COCCOCCOCCNC(=O)c1cc(NC(=O)c2cc(NC(=O)c3ccc(/C=C/c4cnc5ccccc5c4)cc3)cn2C)cn1C [IVa8, (E)-N-(2-(2-(2-methoxyethoxy)ethoxy)ethyl)-1-methyl-4-(1-methyl-4-(4-(2-(quinolin-3-yl)vinyl)benzamido)-1H-pyrrole-2-carboxamido)-1H-pyrrole-2-carboxamide] |  |  |  | 10 to 25% | 70% | 94% |  | 5 to 25 µM (≈ 3.32 to 16.6 µg/mL) | 25 to 50% | > 100 µM | 5 to 25 µM (≈ 3.32 to 16.6 µg/mL) |  | 5 to 50 µM | 10 to 25% | T. vaginalis Selectivity Indices, Group ([16]; SI, IC50 (μM)/IC50 (μM), HEK293 cytotoxicity, Amides): B (Group B: 0.25 < SI <= 0.5) |
| CC/N=C(\N)CCNC(=O)c1cc(NC(=O)c2cc(NC(=O)c3ccc(/C=C/c4cnc5ccccc5c4)cc3)cn2C)cn1C [Ia14, N—((Z)-3-amino-3-(ethylimino)propyl)-1-methyl-4-(1-methyl-4-(4-((E)-2-(quinolin-3-yl)vinyl)benzamido)-1H-pyrrole-2-carboxamido)-1H-pyrrole-2-carboxamide] | 5 to 25 µg/mL (≈ 8.11 to 40.5 µM) | > 50 µg/mL | 5 to 25 µg/mL (≈ 8.11 to 40.5 µM) | < 10% | 2% | 6% | D (D: SI > 10) | < 5 µM |  | > 100 µM | < 5 µM | D (D: SI > 10) | < 1 µM | 10 to 25% | MIC99 [2]: > 50 µg/mL; S. aureus Selectivity Index (SI) [9, 22]: 44; T. vaginalis Selectivity Indices, Group [16, 19]: D (Group D: SI > 32); T. vaginalis Selectivity Index (SI) [16, 20]: 35; E. faecalis Selectivity Index (SI) [14, 22]: 11; MIC99 [15]: > 50 µg/mL |
| COc1ccc(/C=C/c2ccc(C(=O)Nc3cc(C(=O)Nc4cc(C(=O)NCCC(=N)NC(C)C)n(C)c4)n(C)c3)cn2)cc1 [Ia15, (E)-N-(5-((5-((3-imino-3-(isopropylamino)propyl)carbamoyl)-1-methyl-1H-pyrrol-3-yl)carbamoyl)-1-methyl-1H-pyrrol-3-yl)-6-(4-methoxystyryl)nicotinamide] | 5 to 25 µg/mL (≈ 8.19 to 40.9 µM) | 25 to 50 µg/mL (≈ 40.9 to 81.9 µM) | < 5 µg/mL |  | 16% | 64% | C (Group C: 5 < SI <= 10) | 5 to 25 µM (≈ 3.05 to 15.3 µg/mL) |  | 25 to 100 µM (≈ 15.3 to 61.1 µg/mL) | 5 to 25 µM (≈ 3.05 to 15.3 µg/mL) |  | > 50 µM | 10 to 25% | IC50 [4]: 8 to 32 µM; IC50 [10]: 0.1 to 1 µM; IC50 [12]: 0.1 to 1 µM |
| [H]/N=C(\CCNC(=O)c1cc(NC(=O)c2cc(NC(=O)c3ccc(C=Cc4ccc(C#N)cc4)cc3)cn2C)cn1C)NCC [Ia16, (E)-4-(4-(4-cyanostyryl)benzamido)-N-(5-((3-(ethylamino)-3-iminopropyl)carbamoyl)-1-methyl-1H-pyrrol-3-yl)-1-methyl-1H-pyrrole-2-carboxamide] | 25 to 50 µg/mL (≈ 42.3 to 84.6 µM) | > 50 µg/mL | 5 to 25 µg/mL (≈ 8.46 to 42.3 µM) | 25 to 50% | 31% | 27% |  | 25 to 100 µM (≈ 14.8 to 59.1 µg/mL) |  | > 100 µM | 5 to 25 µM (≈ 2.95 to 14.8 µg/mL) | B (Group B: 3 < SI <= 5) | 5 to 50 µM | 25 to 50% |  |
| [H]/N=C(\CCNC(=O)c1cc(NC(=O)c2cc(NC(=O)c3ccc(C=Cc4ccc(C#N)cc4)cc3)cn2C)cn1C)NC(C)C [Ia17, (E)-4-(4-(4-cyanostyryl)benzamido)-N-(5-((3-imino-3-(isopropylamino)propyl)carbamoyl)-1-methyl-1H-pyrrol-3-yl)-1-methyl-1H-pyrrole-2-carboxamide] | 25 to 50 µg/mL (≈ 41.3 to 82.7 µM) | > 50 µg/mL | > 50 µg/mL | 10 to 25% | 13% | 28% |  | 25 to 100 µM (≈ 15.1 to 60.5 µg/mL) |  | > 100 µM | 25 to 100 µM (≈ 15.1 to 60.5 µg/mL) |  | 5 to 50 µM | 10 to 25% |  |
